# Laboratory results published in patent US9662390B2, “Use of opioid antagonists to attenuate endothelial cell proliferation and migration” (THE UNIVERSITY OF CHICAGO, priority 2005, dated 2017).
# Entries after “also recorded” stand apart in the source; their conditions may differ.
# Columns and labels:
# [1] = tested on: human pulmonary microvascular endothelial cells (HPMVEC); assay: Human pulmonary microvascular EC migration assay (Transwell); assay type: cell-based; settings: for agonist-induced HPMVEC migration: agonist 100 nM, 18 hours
# [2] = tested on: human pulmonary microvascular endothelial cells (HPMVEC); assay: Human pulmonary microvascular EC proliferation assay (CellTiter96 MTS); assay type: cell-based; settings: for agonist-induced HPMVEC proliferation: agonist 100 nM, 24 h, serum-free media
# VEGF receptor 1 (Flt-1) = assay: Tyrosine phosphorylation of VEGF receptor 1, immunoprecipitation and immunoblot; assay type: cell-based, human; settings: HPMVEC
# VEGF receptor 2 (Flk-1) = assay: Tyrosine phosphorylation of VEGF receptor 2, immunoprecipitation and immunoblot; assay type: cell-based, human; settings: HPMVEC
# RhoA = RhoA activation assay (RBD beads, anti-RhoA immunoblot); assay type: cell-based, human; settings: for agonist-stimulated RhoA activation: endothelial cells
# Description: The supernatant is removed and the RBD-beads with the GTP-bound form of RhoA bound are washed extensively.
# VEGF receptor = assay: Tyrosine phosphorylation of the VEGF receptor in EC (Example 9); assay type: cell-based, human
# PDGF receptor = assay: Tyrosine phosphorylation of the PDGF receptor in EC (Example 9); assay type: cell-based, human
# S1P3 receptor = assay: Tyrosine phosphorylation of the S1P3 receptor in EC (Example 9); assay type: cell-based, human
# mu opioid receptor = mu opioid receptor (Homo sapiens, UniProt P35372); assay: Serine/threonine phosphorylation of the mu opioid receptor in EC (Example 9); assay type: cell-based
# tumors = assay: Tumor-bearing mice: tumor growth and angiogenesis; assay type: in vivo; settings: eight weeks; for angiogenesis and tumor growth, combination of opioid, opioid antagonist and anticancer agent compared to the other groups: antagonist 5 mg/kg/day, morphine 0.5 mg/kg/day, bevacizumab (Avastin) 5 mg/kg every 14 days; for tumor growth and angiogenesis compared to controls or opioid alone: antagonist orally 5 mg/kg/day with morphine orally 0.5 mg/kg/day
# tumor = assay: Human cancer patients: tumor growth and angiogenesis; assay type: in vivo; settings: antagonist orally 5 mg/kg/day, eight weeks, with opioid and bevacizumab (Avastin)
# [3] = in vivo; cited from earlier work
# [4] = white crystalline powder, typically the bromide salt; cited from earlier work
# F11 c-1 = settings: T241 fibrosarcoma; no increase in morphine treated KO mice; cited from earlier work
# [5] = sickle cell disease; cited from earlier work
# [6] = tested on: morphine induced angiogenesis; settings: xenograft tumor model in mice; cited from earlier work
# [7] = MNTX 100 nM (0.1 μM, 1 hour pretreatment), induced by MS/morphine, DAMGO, VEGF, in Example 9 also S1P and PDGF
# Sequence of mu opioid receptor (P35372 whole entry): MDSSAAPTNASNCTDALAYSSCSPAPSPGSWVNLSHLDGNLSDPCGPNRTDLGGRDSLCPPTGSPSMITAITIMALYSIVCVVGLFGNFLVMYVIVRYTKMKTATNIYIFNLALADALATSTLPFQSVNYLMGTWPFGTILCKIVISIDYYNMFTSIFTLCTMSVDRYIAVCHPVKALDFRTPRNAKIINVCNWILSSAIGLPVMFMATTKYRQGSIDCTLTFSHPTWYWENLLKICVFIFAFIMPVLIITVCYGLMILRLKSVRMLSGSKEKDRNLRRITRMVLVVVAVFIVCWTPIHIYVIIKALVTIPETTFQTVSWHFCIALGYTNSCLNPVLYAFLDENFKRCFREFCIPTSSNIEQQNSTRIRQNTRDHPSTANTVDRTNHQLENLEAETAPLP
molecule,measurement,setting,value
"C[C@@H](NC(=O)[C@@H](N)Cc1ccc(O)cc1)C(=O)NCC(=O)N(C)[C@@H](Cc1ccccc1)C(=O)NCCO [DAMGO, [D-Ala^2, N-MePhe^4, Gly^5-ol] enkephalin]",agonist-induced HPMVEC migration,[1],induce HPMVEC migration; also recorded: induced
same,agonist-induced HPMVEC proliferation,[2],stimulate HPMVEC proliferation; also recorded: induced proliferation
same,agonist-induced tyrosine phosphorylation of VEGF receptor 1 (Flt-1),VEGF receptor 1 (Flt-1),induce tyrosine phosphorylation
same,agonist-induced tyrosine phosphorylation of VEGF receptor 2 (Flk-1),VEGF receptor 2 (Flk-1),induce tyrosine phosphorylation
same,agonist-stimulated RhoA activation,RhoA,stimulate RhoA activation
same,agonist-induced tyrosine phosphorylation of the VEGF receptor,VEGF receptor,induced tyrosine phosphorylation
same,agonist-induced tyrosine phosphorylation of the PDGF receptor,PDGF receptor,induced tyrosine phosphorylation
same,agonist-induced tyrosine phosphorylation of the S1P3 receptor,S1P3 receptor,induced tyrosine phosphorylation
"C[N+]1(CC2CC2)CCC23c4c5ccc(O)c4OC2C(=O)CCC3(O)C1C5 (stereo not shown) [MNTX, N-methylnaltrexone]",inhibition of agonist-induced HPMVEC migration,[1]; [7],inhibited
same,inhibition of agonist-induced HPMVEC proliferation,[2]; [7],attenuated; also recorded: inhibited
same,effect on MS and DAMGO induced tyrosine phosphorylation of VEGF receptor 1,VEGF receptor 1 (Flt-1),blocked
same,effect on VEGF induced tyrosine phosphorylation of VEGF receptor 1,VEGF receptor 1 (Flt-1),attenuates
same,effect on MS and DAMGO induced tyrosine phosphorylation of VEGF receptor 2,VEGF receptor 2 (Flk-1),blocked
same,effect on VEGF induced tyrosine phosphorylation of VEGF receptor 2,VEGF receptor 2 (Flk-1),attenuates
same,effect on agonist-stimulated RhoA activation,"RhoA; induced by morphine/MS, DAMGO, VEGF, in Example 9 also S1P and PDGF",inhibited; also recorded: attenuated
same,effect of MNTX pretreatment on agonist-induced VEGF receptor phosphorylation,VEGF receptor,attenuated
same,effect of MNTX pretreatment on agonist-induced PDGF receptor phosphorylation,PDGF receptor,attenuated
same,effect of MNTX pretreatment on agonist-induced S1P3 receptor phosphorylation,S1P3 receptor,attenuated
same,effect of MNTX pretreatment on agonist-induced mu opioid receptor phosphorylation,mu opioid receptor,attenuated
same,"angiogenesis and tumor growth, combination of opioid, opioid antagonist and anticancer agent compared to the other groups",tumors,enhanced result
same,tumor growth and angiogenesis compared to controls or opioid alone,tumors,reduction in tumor growth and angiogenesis
same,"angiogenesis and tumor growth, combination of opioid, opioid antagonist and anticancer agent compared to the other groups",tumor,enhanced result
same,tolerability of doses that maintain plasma MNTX between about 25 and 150 ng/mL,[3],well tolerated
same,solubility in water,[4],freely soluble in water
"CCCCCCCCCCCCC/C=C/[C@@H](O)[C@@H](N)COP(=O)(O)O [SIP, sphingosine 1-phosphate]",agonist-induced HPMVEC migration,[1],induced
same,agonist-induced HPMVEC proliferation,[2],induced proliferation
same,agonist-stimulated RhoA activation,RhoA,"activation of the cytoskeletal regulatory small G-protein, RhoA"
same,agonist-induced serine/threonine phosphorylation of the mu opioid receptor,mu opioid receptor,induced serine/threonine phosphorylation
C[C@H]1CN(C[C@H](Cc2ccccc2)C(=O)NCC(=O)O)CC[C@@]1(C)c1cccc(O)c1 [alvimopan],"angiogenesis and tumor growth, combination of opioid, opioid antagonist and anticancer agent compared to the other groups",tumors,enhanced result
same,tumor growth and angiogenesis compared to controls or opioid alone,tumors,reduction in tumor growth and angiogenesis
same,"angiogenesis and tumor growth, combination of opioid, opioid antagonist and anticancer agent compared to the other groups",tumor,enhanced result
CN1CC[C@]23c4c5ccc(O)c4O[C@H]2[C@@H](O)C=C[C@H]3[C@H]1C5 [morphine],agonist-induced HPMVEC migration,[1],induced
same,agonist-induced HPMVEC migration,[1]; listed as MS,induce HPMVEC migration
same,agonist-induced HPMVEC proliferation,[2],induced proliferation
same,agonist-induced HPMVEC proliferation,[2]; listed as MS,stimulate HPMVEC proliferation
same,agonist-induced tyrosine phosphorylation of VEGF receptor 1 (Flt-1),VEGF receptor 1 (Flt-1),induce tyrosine phosphorylation
same,agonist-induced tyrosine phosphorylation of VEGF receptor 2 (Flk-1),VEGF receptor 2 (Flk-1),induce tyrosine phosphorylation
same,agonist-stimulated RhoA activation,RhoA,stimulate RhoA activation
same,agonist-stimulated RhoA activation,RhoA; listed as MS,stimulate RhoA activation
same,agonist-induced tyrosine phosphorylation of the VEGF receptor,VEGF receptor,induced tyrosine phosphorylation
same,agonist-induced tyrosine phosphorylation of the PDGF receptor,PDGF receptor,induced tyrosine phosphorylation
same,agonist-induced tyrosine phosphorylation of the S1P3 receptor,S1P3 receptor,induced tyrosine phosphorylation
same,increase in F11 c-1 expression in morphine treated mice versus controls,F11 c-1,10 fold
same,proliferative retinopathy,[5],induced proliferative retinopathy
C=CCN1CC[C@]23c4c5ccc(O)c4O[C@H]2C(=O)CC[C@@]3(O)[C@H]1C5 [naloxone],effect on morphine induced angiogenesis,[6],did not exhibit a significant effect
platelet-derived growth factor [PDGF],agonist-induced HPMVEC migration,[1],induced
same,agonist-induced HPMVEC proliferation,[2],induced proliferation
same,agonist-stimulated RhoA activation,RhoA,"activation of the cytoskeletal regulatory small G-protein, RhoA"
same,agonist-induced serine/threonine phosphorylation of the mu opioid receptor,mu opioid receptor,induced serine/threonine phosphorylation
vascular endothelial growth factor [VEGF],agonist-induced HPMVEC migration,[1],induce HPMVEC migration; also recorded: induced
same,agonist-induced HPMVEC proliferation,[2],stimulate HPMVEC proliferation; also recorded: induced proliferation
same,agonist-induced tyrosine phosphorylation of VEGF receptor 1 (Flt-1),VEGF receptor 1 (Flt-1),induced
same,agonist-induced tyrosine phosphorylation of VEGF receptor 2 (Flk-1),VEGF receptor 2 (Flk-1),induced
same,agonist-stimulated RhoA activation,RhoA,"stimulate RhoA activation; also recorded: activation of the cytoskeletal regulatory small G-protein, RhoA"
same,agonist-induced serine/threonine phosphorylation of the mu opioid receptor,mu opioid receptor,induced serine/threonine phosphorylation
